# Columns and labels:
# [1] = system: sweat production in the axilla (eccrine sweat glands); experiment: Antiperspirant efficacy evaluation, standard hot room protocol (FDA OTC Antiperspirant Tentative Final Monograph); assay type: in vivo, human (healthy female volunteers); conditions: for mean reduction in sweat production: axilla, once daily for five days, about one hour after fifth treatment
# Description: (§1) The antiperspirant efficacy and safety of glycopyrrolate, a quaternary ammonium salt, was tested pursuant to protocol prescribed by the Food and Drug Administration, 21CFR Part 10.90 The OTC Antiperspirant Tentative Final Monograph. So as to separate vehicle from drug effects, glycopyrrolate was presented as a simple solution in varying concentrations of 0.3%, 1% and 3% weight per volume. In each treatment group as listed below, the glycopyrrolate solution and a placebo of distilled water were applied to the axilla of healthy female volunteers. In particular, the placebo was applied to one armpit while the test solution was applied to the other armpit of a given volunteer. The designation of armpits (namely, right or left) for the application of placebo vs. solution was randomized according to the FDA protocol. In the placebo Group B, distilled water was applied to both axilla of each volunteer. Treatments were applied once daily for five consecutive days.
# The groups comprised the following: • Group A—0.3% glycopyrrolate versus distilled water; • Group B—Placebo (distilled water applied to both axilla); • Group C—1% glycopyrrolate versus distilled water; • Group D—3% glycopyrrolate versus distilled water;
# (§2) The clinical study was conducted among 37 healthy female volunteers. The testing further conformed to ICH guidelines and the requirements of the 1964 Declaration of Helsinki and its subsequent amendments. The study was a pilot, single-center, randomized, controlled, double-blind assessment of the safety, tolerability and antiperspirant efficacy of glycopyrrolate when applied to the axilla of healthy female volunteers.
# The study was conducted in two cohorts of volunteers. The first cohort comprised fourteen (14) subjects, with […] subjects assigned to placebo Group B and ten (10) subjects assigned to 0.3% Group A.
# Nine (9) days following the completion of the first cohort, a second cohort of twenty-three (23) subjects were tested, with three (3) subjects assigned to placebo Group B, ten (10) subjects assigned to 1% Group C, and ten (10) subjects assigned to 3% Group D.
# (§3) The antiperspirant efficacy evaluation was performed approximately one hour after the fifth treatment using a standard hot room protocol. Safety and tolerance were measured by assessment of blood chemistry and hematology, electrocardiograms, daily monitoring of heart rate, blood pressure and body temperature, assessment of visual effects and dermal irritancy, and subjective assessment of tolerance.
# [2] = system: healthy female volunteers; experiment: Safety and tolerance assessment on topical application to the axilla; assay type: in vivo, human
# Description: as §1, §2, §3
# [3] = 1% w/v simple solution (Group C) vs distilled water
# [4] = 3% w/v simple solution (Group D) vs distilled water
# [5] = 0.3%, 1% and 3% w/v topical to axilla, once daily for five days
smiles,measurement,setting,value
C[N+]1(C)CCC(OC(=O)C(O)(c2ccccc2)C2CCCC2)C1 (stereo not drawn) [glycopyrrolate],antiperspirant efficacy in words,[1]; 0.3% concentration,essentially ineffective
same,inhibition enjoyed by two subjects,"[1]; 0.3% concentration, two subjects",0.50 % inhibition
same,statistical significance of reduction in sweat production,[1]; 0.3% w/v simple solution (Group A) vs distilled water,no statistically significant reduction in sweat production
same,binomial criteria of 95% confidence with at least 50% of the population showing at least 20% reduction in sweating,[1]; 1% group,met the binomial criteria
same,range of effect (inhibition of sweating across subjects),[1]; 1% treatment group,−16-to 54 % inhibition
same,statistical significance of reduction in sweat production,[1]; [3],significant sweat reduction
same,mean reduction in sweat production,[1]; [3],32.85%±9.81
same,binomial criteria of 95% confidence with at least 50% of the population showing at least 20% reduction in sweating,[1]; 3% group,met the binomial criteria
same,range of effect (inhibition of sweating across subjects),[1]; 3% treatment group,−13 to 90 % inhibition
same,statistical significance of reduction in sweat production,[1]; [4],significant sweat reduction
same,mean reduction in sweat production,[1]; [4],54.72%±20.23
same,dose dependence of antiperspirant effect,"[1]; simple solution, 0.3%, 1% and 3%, highest efficacy at 3%",dose-dependent antiperspirant effect
same,pupillary dilation or other systemic symptoms of anticholinergic agents,[2]; [5],no signs of pupillary dilation or other systemic symptoms
same,serious adverse events,[2]; [5],No serious adverse events
same,"adverse events, clinical significance",[2]; reviewed by principal investigator and attendant cardiologist,clinically non-significant

# — patent publication US20060210504A1, “Compositions and methods for inhibiting eccrine perspiration in humans” (priority 2001, published 2006)
